Data set [1] has as its target T1, human NK1 receptor (Homo sapiens (Human), UniProt P25103). The data set is described as follows: Affinity for human NK1 receptor (125I-substance P receptor binding test). The settings on record: membrane fraction of human NK1 receptor-expressing 293T cells; read-out: IC50 (concentration required for 50% inhibition of 125I-substance P binding). The protocol: Affinity for Human NK1 Receptor
(3) Measurement of Binding Affinity to Human NK1 Receptor
(3-1) Preparation of Membrane Fraction from Human NK1 Receptor-expressing Cells
Human NK1 receptor-expressing cells were prepared in a 175 cm^2 culture flask (Nippon Becton Dickinson). The formation of a complex of the human NK1 receptor expression plasmid and Lipofectamine 2000 was performed by calculating the culture area ratio and increasing the scale of the method described in the above 2-4 by the ratio. The human NK1 receptor-expressing cells were collected in a buffer solution for the membrane fraction preparation (50 mM Tris (Wako Pure Chemical). 120 mM sodium chloride (Wako Pure Chemical Industries), 5 mM potassium chloride (Wako Pure Chemical Industries), 1 mM ethylenediaminetetraacetic acid (Sigma), 0.002 mg/mL chymostatin (Peptide Institute), 0.04 mg/ bacitracin (Wako Pure Chemical Industries), 0.005 mg/mL phosphoramidon (Peptide Institute) and 0.5 mM phenylmethylsulfonyl fluoride (Wako Pure Chemical Industries), pH7.4) and centrifuged at 1,880 g for 10 minutes, and the cell sediment was suspended in the buffer solution for the membrane fraction preparation. After freezing and thawing the cells once, the cells were homogenized using a Dounce-type homogenizer (cooled on ice, 1000 rpm, 20 times). The homogenized cell suspension was centrifuged at 20,000 rpm for 10 minutes, and the supernatant was removed to obtain cell sediment. The cell sediment was suspended again in the buffer solution for the membrane fraction preparation and homogenized using a Dounce-type homogenizer (cooled on ice, 1000 rpm, 30 times). The cell suspension was centrifuged at 20,000 rpm for 10 minutes, and the supernatant was removed to obtain cell sediment. The same homogenization and centrifugation were repeated again, and final cell sediment was obtained. The final cell sediment was suspended in a buffer solution for the receptor binding test (50 mM Tris (Wako Pure Chemical Industries), 3 mM manganese chloride (Wako Pure Chemical Industries), 0.002 mg/mL chymostatin (Peptide Institute), 0.04 mg/bacitracin (Wako Pure Chemical Industries) and 0.02% bovine serum albumin (Sigma), pH 7.4), and the protein concentration was measured using BCA Protein Assay Kit (Pierce).
(3-2) Receptor Binding Test
The buffer solution for the receptor binding test was dispensed to the wells of a 96-well assay plate (Greiner) at 22.5 μL/well. DMSO solutions of a test compound, which were prepared at an 80-time higher concentration using 100% dimethyl sulfoxide (DMSO), were added to the wells at 2.5 μL/well (final concentrations of 1 nM to 100 nM), and the solutions were mixed. As a radiolabeled ligand, ^125I-substance P (Substance P, [^125I]Tyr^8-, PerkinElmer) was used. ^125I-substance P was diluted with the buffer solution for the receptor binding test to a concentration resulting in […] and added to the 96-well assay plate, and the solutions were mixed. The membrane fraction prepared from the human NK1 receptor-expressing cells was diluted with the buffer solution for the receptor binding test to a concentration resulting in 8 to 10 μg/well, suspended until the suspension became in such a homogenous state that the suspension could flow through as 27G injection needle smoothly and then added to the 96-well assay plate at 150 μL/well. Then, the plate was incubated at room temperature for 60 minutes while shaking the plate. The reaction solutions were suction-filtered. through a multiscreen 96-well filter plate (Millipore) which had been pre-treated with 0.3% polyethyleneimine, and the reaction was terminated by washing with a washing solution (50 mM Tris and 0.02% bovine serum albumin, pH 7.4) four times. The bottom of the microplate was dried at 60° C., and then 100 μL/well of MicroScint 20 (PerkinElmer) was dispensed to the wells. The top of the plate was sealed with TopSeal A (PerkinElmer), and the plate was shaken for 5 to 10 minutes. […]

Data set [2] is described as follows: Measurement of drug concentrations in the brain after foot-tapping test. It is filed as in vivo. The settings on record: male; 0.3 mg/kg iv, after foot-tapping was finished, gerbil brain; read-out: Conc. (drug concentration in the brain). As to the method: (§1) A male gerbil (Japan SLC) was anesthetized with isoflurane, and 0.3 mg/kg of a test compound was administered from the jugular vein. After four hours, GR73632 (5 pmol/5 μl), which is an NK1 receptor agonist, was administered into the cerebral ventricle at the part 1 mm lateral to and 4.5 mm below the bregma in the head, under anesthesia with isoflurane. After the administration, the gerbil was moved to an observation cage, and the foot-tapping period during five minutes after the recovery of the righting reflex was measured. The foot-tapping inhibition rate (%) of each test compound was calculated by the following equation. Foot-tapping inhibition rate (%)={1−(Foot-tapping period when test compound was administered)/(Foot-tapping period when solvent was administered)}×100 (2) Measurement of Drug Concentrations
After foot-tapping was finished, laparotomy was performed immediately under anesthesia with ether, and a blood sample was taken from the abdominal vena cava. At the same time, the brain was extracted. Through a quantitative analysis using liquid chromatography-mass spectrometry (LC/MS), the concentrations of the test compound in the plasma and the brain were measured.
(§2) In the table, Ex. No. means the Example number. Inhibition (%) is the foot-tapping inhibition rate, and Conc. (nM) is the drug concentration in the brain.

Data set [3] addresses T2, CYP3A4 (Homo sapiens (Human), UniProt P08684). The data set is described as follows: Inhibitory effect on CYP3A4 (Luciferin-IPA).
Description: Enzyme reaction was performed by incubating in a potassium phosphate buffer solution (pH 7.4) containing 1 nM to 20 μM test compound, 3.2 mM magnesium chloride, 0.2 pmol human CYP3A4 (BD Biosciences), 0.5 mM reduced nicotinamide adenine dinucleotide phosphate (NADPH) and 3 μM Luciferin-IPA (Promega) at 37° C. for 10 minutes. The volume of the reaction solution was 50 μL/well. The 30-minute pre-incubation group was incubated at 37° C. for 30 minutes before adding the substrate, the Luciferin-IPA solution (12.5 μL/well). At the end of the enzyme reaction, 50 μL/well of a Luciferin detection reagent (Promega) was added to the wells, and the plate was left at room temperature for 20 minutes. Then, the emission intensities were measured with Infinite M1000 (TECAN). The enzyme activities (%) relative to the value of the group to which the test compound was not added were calculated.
A further data set deals with NK1 receptor (Meriones unguiculatus (Mongolian jird) (Gerbillus unguiculatus), UniProt Q5DUB1). Put plainly: Effect on GR73632-induced foot-tapping. Particulars: 0.3 mg/kg from the jugular vein, GR73632 after four hours, male gerbil. It is filed as in vivo. The protocol:
(1) Effect on Foot-tapping
as §1, §2

The target in data set [4] is T1, human NK1 receptor. The data set is described as follows: Inhibitory effect on human NK1 receptor (substance P-induced increase in intracellular calcium concentration). The class given is cell-based. Particulars: HEK-293T; substance P 1 μM, compound 0.1 μM; human NK1 receptor-expressing 293T cells; read-out: SPRR (Substance P-Response Remaining). As to the method: Inhibitory Effect on Human NK1 Receptor
(1) Preparation of Human NK1 Receptor-expressing Cells
Human NK1 receptor-expressing cells were prepared by the same methods as those described in 2-3 and 2-4 of Test Example 1.
(2) Study on Inhibitory Effect on Increase in Intracellular Calcium Concentration
The human NK1 receptor-expressing cells were washed with 300 μL/well of a washing solution (20 mM HEPES/Hank's Balanced Salt Solution (HBSS) […]). A fluorescent calcium indicator (Fluo-4 Direct Calcium Assay Kit, Life Technologies, containing 0.42 mM probenecid and 0.1% bovine serum albumin, prepared according to the protocol of the product) was added to the wells at 150 μL/well, and the plate was incubated at 37° C. for 30 minutes in an incubator. Then, DMSO solutions of a test compound, which were prepared at an 80-time higher concentration using 100% dimethyl sulfoxide (DMSO), were added to the wells at 2.5 μL/well (final concentrations of 0.1, 1 and 10 μM), and the solutions were mixed. Then, the plate was further incubated at 37° C. for 30 minutes in an incubator. After 30 minutes, the intracellular calcium concentrations were measured immediately.
The intracellular calcium concentrations were each measured as a fluorescent signal using FDSS (registered trademark) 7000 (Hamamatsu Photonics). A substance P (Peptide Institute, Inc.) solution which was prepared at 0.4 μM or 4 μM using an assay buffer (20 mM HEPES/Hank's Balanced Salt Solution (HBSS) pH 7.3, containing 0.1% bovine serum albumin) was added automatically to each well at 50 μL/well (final concentration of 0.1 or 1 μM) 10 seconds after starting reading, and the fluorescent signal was measured up to 120 seconds.
The intracellular calcium concentration (%) of the cells to which a test compound was added was calculated by the equation below, where the fluorescent signal of the group to which the vehicle (DMSO) was added was regarded as 100%, and the fluorescent signal before the addition of substance P was regarded as 0%. Intracellular calcium concentration(%)=(Fluorescent signal of test compound addition group)/(Fluorescent signal of vehicle addition group)×100
The intracellular calcium concentration (%) calculated was regarded as the remaining agonist activity of substance P (Substance P-Response Remaining: SPRR). In the table, Ex. No. means the Example number. SPRR (%) is the value obtained when the concentration of substance P was 1 μM and the concentration of the compound was 0.1 μM.

The target of data set [5] is T2, CYP3A4. The settings on record: background literature; cited from earlier work.
Where [6] appears, read: read-out: IC50 (CYP3A4 inhibition), 30-minute pre-incubation group.

Read-outs that look alike come from different tables or passages of the source.

T2 sequence (P08684 whole entry): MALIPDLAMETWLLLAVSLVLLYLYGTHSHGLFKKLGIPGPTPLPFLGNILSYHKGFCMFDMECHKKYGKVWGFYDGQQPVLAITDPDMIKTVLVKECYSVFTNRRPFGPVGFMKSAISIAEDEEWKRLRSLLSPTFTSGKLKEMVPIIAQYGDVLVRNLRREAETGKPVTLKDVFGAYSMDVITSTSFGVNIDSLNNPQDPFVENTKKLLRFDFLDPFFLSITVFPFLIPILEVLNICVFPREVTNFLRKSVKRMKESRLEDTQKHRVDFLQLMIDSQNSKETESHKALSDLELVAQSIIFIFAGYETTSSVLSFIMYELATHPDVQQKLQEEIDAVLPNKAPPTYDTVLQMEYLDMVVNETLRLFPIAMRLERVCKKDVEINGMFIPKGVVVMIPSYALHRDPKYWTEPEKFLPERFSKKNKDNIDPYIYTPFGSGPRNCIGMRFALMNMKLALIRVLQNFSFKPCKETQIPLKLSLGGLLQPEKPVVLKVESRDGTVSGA
Chain of NK1 receptor (Q5DUB1 whole entry): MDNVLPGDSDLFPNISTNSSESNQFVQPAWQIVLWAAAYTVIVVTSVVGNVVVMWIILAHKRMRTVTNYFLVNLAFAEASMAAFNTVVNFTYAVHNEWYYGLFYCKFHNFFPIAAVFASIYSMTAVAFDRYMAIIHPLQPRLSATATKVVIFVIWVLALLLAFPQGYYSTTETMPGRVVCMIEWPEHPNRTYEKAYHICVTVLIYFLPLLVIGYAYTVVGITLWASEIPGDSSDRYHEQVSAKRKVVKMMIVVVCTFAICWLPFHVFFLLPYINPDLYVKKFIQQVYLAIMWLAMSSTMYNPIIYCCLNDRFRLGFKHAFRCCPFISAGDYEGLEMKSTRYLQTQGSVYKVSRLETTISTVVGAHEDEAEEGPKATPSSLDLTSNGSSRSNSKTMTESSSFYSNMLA
T1 sequence (P25103 whole entry): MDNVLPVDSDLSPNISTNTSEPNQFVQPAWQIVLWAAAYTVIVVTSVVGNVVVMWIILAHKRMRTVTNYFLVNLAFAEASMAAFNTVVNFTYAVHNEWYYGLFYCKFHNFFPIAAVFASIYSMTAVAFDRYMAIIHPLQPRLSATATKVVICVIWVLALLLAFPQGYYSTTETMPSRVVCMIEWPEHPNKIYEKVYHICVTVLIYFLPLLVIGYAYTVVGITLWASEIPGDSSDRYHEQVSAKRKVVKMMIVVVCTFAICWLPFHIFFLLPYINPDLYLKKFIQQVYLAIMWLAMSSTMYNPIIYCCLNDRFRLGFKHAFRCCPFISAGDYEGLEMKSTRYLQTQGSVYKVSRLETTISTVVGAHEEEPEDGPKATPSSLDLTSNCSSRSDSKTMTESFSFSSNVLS

Regarding `Cc1cc(F)ccc1-c1cc(N2CCC(CC(=O)O)CC2)nc(C#N)c1N(C)C(=O)C(C)(C)c1cc(C(F)(F)F)cc(C(F)(F)F)c1` [Example 6], the figures for the IC50 on human NK1 receptor [1] and on CYP3A4 [3] (setting [6]) were 0.0026 µM and 2.6 µM, respectively. Further, in data set [2], the concentration at 4 h amounted to 243 nM. In addition, the “Inhibition (foot-tapping inhibition rate)” value (“Inhibition” for short) at NK1 receptor was found to be 100%. Also, the remaining activity at 0.1 µM on human NK1 receptor [4] turned out to be 73%.
For the molecule `CC(=O)N1CCN([C@H]2CCN(C(=O)N(C)[C@H](C)c3cc(C(F)(F)F)cc(C(F)(F)F)c3)[C@@H](c3ccc(F)cc3C)C2)CC1` [casopitant], the “inhibitory effect on CYP3A4 (reported)” value at CYP3A4 [5] is on record as “inhibitory effect on CYP3A4”.
As for `Cc1cc(F)ccc1-c1cc(N2CCC(CC(=O)O)C(C)C2)ncc1N(C)C(=O)C(C)(C)c1cc(C(F)(F)F)cc(C(F)(F)F)c1` (stereo not drawn) [Example 4], the IC50 was found to be 0.00354 µM on human NK1 receptor [1] and 4.8 µM on CYP3A4 [3] (setting [6]). For the same molecule, the concentration at 4 h in data set [2] was 179 nM. Further, on NK1 receptor, the “Inhibition” value stood at 100%. In addition, the remaining activity at 0.1 µM at human NK1 receptor [4] is 16%.
As for `Cc1cc(F)ccc1-c1cc(N2CCC(C)(CC(=O)O)CC2)nc(C#N)c1N(C)C(=O)C(C)(C)c1cc(C(F)(F)F)cc(C(F)(F)F)c1` [Example 10, [5′-{[2-(3,5-Bistrifluoromethylphenyl)-2-methylpropionyl]methylamino}-6′-cyano-4′-(4-fluoro-2-methylphenyl)-4-methyl-3,4,5,6-tetrahydro-2H-[1,2′]bipyridinyl-4-yl]acetic acid], the IC50 at human NK1 receptor [1] is 0.00332 µM; at CYP3A4 [3] (setting [6]), 3.8 µM. The concentration at 4 h in data set [2] came out at 219 nM. For the same molecule, the “Inhibition” value at NK1 receptor turned out to be 100%.
On to `Cc1cc(F)ccc1-c1cc(N2CCC(CC(=O)O)C(C)(C)C2)ncc1N(C)C(=O)C(C)(C)c1cc(C(F)(F)F)cc(C(F)(F)F)c1` (stereo not drawn) [Example 3], for which the figures for the IC50 on human NK1 receptor [1] and at CYP3A4 [3] (setting [6]) were 0.00461 µM and 3.7 µM, respectively. Also, the concentration at 4 h in data set [2] came to 262 nM. For the same molecule, the “Inhibition” value on NK1 receptor is listed as 100%. For the same molecule, the remaining activity at 0.1 µM on human NK1 receptor [4] is 13%.
On to `Cc1cc(F)ccc1-c1cc(N2CCC(C(C)(C)C(=O)O)CC2)ncc1N(C)C(=O)C(C)(C)c1cc(C(F)(F)F)cc(C(F)(F)F)c1` [Example 7, [5′-{[2-(3,5-Bistrifluoromethylphenyl)-2-methylpropionyl]methylamino}-4′-(4-fluoro-2-methylphenyl)-3,4,5,6-tetrahydro-2H-[1,2′]bipyridinyl-4-yl]-2-methylpropionic acid], for which the IC50 is 0.00465 µM at human NK1 receptor [1] and 4.1 µM at CYP3A4 [3] (setting [6]). Also, the remaining activity at 0.1 µM at human NK1 receptor [4] is 6%.
Turning to `Cc1ccccc1-c1cc(N2CCC(CC(=O)O)CC2)ncc1N(C)C(=O)C(C)(C)c1cc(C(F)(F)F)cc(C(F)(F)F)c1` [Example 2, (5′-{[2-(3,5-Bistrifluoromethylphenyl)-2-methylpropionyl]methylamino}-4′-ortho-tolyl-3,4,5,6-tetrahydro-2H-[1,2]bipyridinyl-4-yl)acetic acid], the IC50 at human NK1 receptor [1] stood at 0.00253 µM; at CYP3A4 [3] (setting [6]) it was 13 µM. The concentration at 4 h in data set [2] was determined as 167 nM. Further, the “Inhibition” value on NK1 receptor was 81%. On human NK1 receptor [4], the remaining activity at 0.1 µM came to 54%.
Regarding `COC1CN(c2cc(-c3ccc(F)cc3C)c(N(C)C(=O)C(C)(C)c3cc(C(F)(F)F)cc(C(F)(F)F)c3)cn2)CCC1CC(=O)O` (stereo not drawn) [Example 5, [5′-{[2-(3,5-Bistrifluoromethylphenyl)-2-methylpropionyl]methylamino}-4′-(4-fluoro-2-methylphenyl)-3-methoxyl-3,4,5,6-tetrahydro-2H-[1,2′]bipyridinyl-4-yl]acetic acid], the results for the IC50 at human NK1 receptor [1] and at CYP3A4 [3] (setting [6]) were 0.00329 µM and 5.5 µM, respectively. Also, the concentration at 4 h in data set [2] came to 111 nM. In addition, on NK1 receptor, the “Inhibition” value turned out to be 97%. Further, the remaining activity at 0.1 µM at human NK1 receptor [4] amounted to 49%.
For `Cc1cc(F)ccc1-c1cc(N2CCC(C)(CC(=O)O)CC2)ncc1N(C)C(=O)C(C)(C)c1cc(C(F)(F)F)cc(C(F)(F)F)c1` [Example 9], the IC50 at human NK1 receptor [1] worked out at 0.00283 µM; at CYP3A4 [3] (setting [6]), 6.3 µM. Also, at human NK1 receptor [4], the remaining activity at 0.1 µM worked out at 6%.
On to `Cc1cc(F)ccc1-c1cc(N2CCC([C@H](C)C(=O)O)CC2)ncc1N(C)C(=O)C(C)(C)c1cc(C(F)(F)F)cc(C(F)(F)F)c1` [Example 11, (S)-2-[5′-{[2-(3,5-Bistrifluoromethylphenyl)-2-methylpropionyl]methylamino}-4′-(4-fluoro-2-methylphenyl)-3,4,5,6-tetrahydro-2H-[1,2′]bipyridinyl-4-yl]propionic acid], for which the IC50 at human NK1 receptor [1] was determined as 0.00132 µM; at CYP3A4 [3] it was 4.9 µM. For the same molecule, the remaining activity at 0.1 µM at human NK1 receptor [4] was 7%.

The record behind these values is US10100030B2 (Kissei Pharmaceutical Co., Ltd., priority 2013, dated 2018).
